In ChEMBL document CHEMBL1201862, “PubChem BioAssay data set” (2004):
The source made the active and inactive calls.

What was measured:
[1] = target: Eukaryotic translation initiation factor 4E (Mus musculus, UniProt P63073); test: eIF4E–eIF4G protein interaction inhibitors, dose response, biochemical, TR-FRET (AID 855); format: functional;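 note: potency for disrupting eIF4E binding to eIF4GI seen as loss of FRET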
[2] = target: T1, E3 ubiquitin-protein ligase XIAP (Homo sapiens, UniProt P98170); test: Counter Screen using XIAP-Bir3 for Chemical Antagonists of Bir1/2 domains of IAP-family anti-apoptotic proteins. [Related pubchem assays (depositor defined):AID1018, AID1449, AID1514, AID1638, AID1749, AID1750, AID488957, AID488963]
T1 sequence (P98170 whole entry): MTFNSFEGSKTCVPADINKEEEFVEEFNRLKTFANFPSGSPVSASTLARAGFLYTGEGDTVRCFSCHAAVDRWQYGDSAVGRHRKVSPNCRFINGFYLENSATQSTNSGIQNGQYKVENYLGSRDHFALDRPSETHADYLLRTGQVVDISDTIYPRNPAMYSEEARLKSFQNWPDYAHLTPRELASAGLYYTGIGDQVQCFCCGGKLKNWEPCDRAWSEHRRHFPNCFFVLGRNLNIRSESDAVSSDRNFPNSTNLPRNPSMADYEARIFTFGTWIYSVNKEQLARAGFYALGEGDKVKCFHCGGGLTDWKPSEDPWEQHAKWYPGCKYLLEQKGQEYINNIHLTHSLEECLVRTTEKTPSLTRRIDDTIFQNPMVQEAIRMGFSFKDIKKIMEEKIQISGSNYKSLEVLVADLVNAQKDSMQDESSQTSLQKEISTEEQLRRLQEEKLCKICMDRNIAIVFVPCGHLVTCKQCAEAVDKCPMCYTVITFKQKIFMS

[3] = Luminescence Cell-Based Dose Retest to Confirm Inhibitors of Cancer Stem Cells. [Related pubchem assays (depositor defined):AID2717, AID2721]; format: functional; settings: Homo sapiens
[4] = target: T1, E3 ubiquitin-protein ligase XIAP; test: XIAP antagonists, biochemical, IAP family, fluorescence polarization (AID 1018); format: functional
[5] = target: T2, Mannose-6-phosphate isomerase (Homo sapiens, UniProt P34949); test: human PMI inhibitors, high substrate, primary screen, biochemical, fluorescence intensity, high mannose 6-phosphate (AID 1220)
T2 sequence (P34949 whole entry): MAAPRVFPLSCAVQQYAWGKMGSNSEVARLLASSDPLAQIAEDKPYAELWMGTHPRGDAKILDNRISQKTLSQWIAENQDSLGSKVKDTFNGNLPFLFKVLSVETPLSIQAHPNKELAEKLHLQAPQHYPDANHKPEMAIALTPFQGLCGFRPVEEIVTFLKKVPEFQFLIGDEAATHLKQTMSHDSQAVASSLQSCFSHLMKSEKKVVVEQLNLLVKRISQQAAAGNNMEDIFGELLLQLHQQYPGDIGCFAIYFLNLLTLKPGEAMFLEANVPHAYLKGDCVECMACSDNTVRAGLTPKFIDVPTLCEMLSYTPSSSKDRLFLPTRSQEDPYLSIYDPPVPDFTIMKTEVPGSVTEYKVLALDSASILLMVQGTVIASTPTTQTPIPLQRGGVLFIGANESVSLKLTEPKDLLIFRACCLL

[6] = target: T2, Mannose-6-phosphate isomerase; test: inhibitors of human PMI, primary screen, biochemical, fluorescence intensity, coupled assay (AID 1209)
[7] = target: G-protein coupled receptor 55 (Homo sapiens, UniProt Q9Y2T6); test: GPR55 antagonists blocking LPI-driven arrestin recruitment, primary screen, imaging, U2OS, beta-arrestin-GFP, LPI agonist (AID 2013); format: functional;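 note: antagonist potency measured as reduced agonist-driven arrestin aggregation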
Sequence of G-protein coupled receptor 55 (Q9Y2T6 whole entry): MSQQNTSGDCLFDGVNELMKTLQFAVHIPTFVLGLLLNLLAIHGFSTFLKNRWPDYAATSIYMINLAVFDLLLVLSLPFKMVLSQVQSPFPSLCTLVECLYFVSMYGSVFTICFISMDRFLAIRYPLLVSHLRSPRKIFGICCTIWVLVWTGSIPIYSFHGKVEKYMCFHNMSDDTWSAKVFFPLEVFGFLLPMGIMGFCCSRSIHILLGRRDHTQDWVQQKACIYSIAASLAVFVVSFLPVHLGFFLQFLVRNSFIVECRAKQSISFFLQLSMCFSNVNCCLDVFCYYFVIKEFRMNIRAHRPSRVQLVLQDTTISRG

[8] = cytotoxicity in KRAS-transformed pancreatic duct cells, primary screen, cell-based, fluorescence, HTS (AID 431); format: functional; settings: Homo sapiens;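 note: cell line used: HPDE-C7K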
[9] = cytotoxicity in HPDE-C7 cells, cell-based, fluorescence, HTS (AID 430); format: functional; settings: Homo sapiens
[10] = cytotoxicity in HEK-293T cells, dose response, cytotoxicity control for TCR NF-kB inhibitor project, luminescence, T-cell screen hits (AID 489026); format: functional, cell-based;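 note: cells exposed to compound about 14 hours before the viability readout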
[11] = tested on: INS1; test: beta cell apoptosis inhibitors, cytokine rescue, dose response, luminescence, retest (AID 449756); format: functional, cell-based; settings: Rattus norvegicus;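 note: cell death triggered by IL-1 beta plus TNF-alpha plus IFN-gamma mixture; protective hits raise ATP signal compared with cytokine alone wells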
[12] = tested on: H4; test: Luminescence Cell-Based Dose Response HTS to Identify Activators of 5'UTR Stem-Loop Driven Prion Protein mRNA Translation in H4 Neuroglioblastoma Cells. [Related pubchem assays: 1829 (Project Summary), 1814 (Primary HTS)]; format: functional; settings: Homo sapiens
[13] = Luminescence Cell-Based Dose Response HTS to Identify Activators of Luciferase Translation or Activity in H4 […] Cells. [Related pubchem assays: 1829 (Project Summary), 1814 (Primary HTS)]; format: functional
[14] = Luminescence Cell-Based Dose Confirmation HTS to Identify Activators of 5'UTR Stem-Loop Driven Alpha-Synuclein mRNA Translation in H4 Neuroglioblastoma Cells. [Related pubchem assays: 1829 (Project Summary), 1814 (Primary HTS)]; format: functional
[15] = inhibitors of intracellular T. cruzi replication, confirmation, NIH3T3 host cells, beta-gal luminescence (AID 2044); format: functional, cell-based;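 note: intracellular parasites grown in NIH/3T3 mouse fibroblasts as host cells; luminescent beta-galactosidase reporter signal from transgenic T. cruzi replicating inside host cells; inhibitors lower the luminescence signal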
[16] = target: Genome polyprotein (dengue virus type 2, UniProt P29990); test: Dengue-2 NS5 methyltransferase inhibitors, primary screen, biochemical, confirmation dose response (AID 588689); format: functional
Sequence of Genome polyprotein (P29990 2492-3391 limits assumed): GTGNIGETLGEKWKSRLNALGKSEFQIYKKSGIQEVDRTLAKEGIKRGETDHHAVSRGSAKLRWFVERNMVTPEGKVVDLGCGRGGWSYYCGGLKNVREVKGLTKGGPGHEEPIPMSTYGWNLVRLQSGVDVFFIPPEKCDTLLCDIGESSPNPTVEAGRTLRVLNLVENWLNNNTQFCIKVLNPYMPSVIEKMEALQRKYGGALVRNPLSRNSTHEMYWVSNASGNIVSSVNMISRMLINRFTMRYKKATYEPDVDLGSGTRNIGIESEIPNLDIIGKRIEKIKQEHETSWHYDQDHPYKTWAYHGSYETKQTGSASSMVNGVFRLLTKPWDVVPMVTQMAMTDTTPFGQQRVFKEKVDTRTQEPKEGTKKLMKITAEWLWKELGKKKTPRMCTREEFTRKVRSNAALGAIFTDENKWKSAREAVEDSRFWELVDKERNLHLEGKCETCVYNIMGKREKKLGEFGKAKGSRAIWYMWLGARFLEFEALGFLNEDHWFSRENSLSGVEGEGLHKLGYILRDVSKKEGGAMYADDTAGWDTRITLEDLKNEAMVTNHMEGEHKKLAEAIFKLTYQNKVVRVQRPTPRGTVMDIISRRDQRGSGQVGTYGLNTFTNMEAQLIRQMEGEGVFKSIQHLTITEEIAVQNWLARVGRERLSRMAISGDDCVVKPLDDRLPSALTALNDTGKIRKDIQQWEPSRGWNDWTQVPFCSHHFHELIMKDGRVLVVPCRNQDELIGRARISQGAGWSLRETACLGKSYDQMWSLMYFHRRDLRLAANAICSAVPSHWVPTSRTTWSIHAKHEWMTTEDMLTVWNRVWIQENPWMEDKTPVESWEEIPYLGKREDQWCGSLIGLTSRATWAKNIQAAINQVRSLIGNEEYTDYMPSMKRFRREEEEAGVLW

[17] = cytotoxicity toward NIH3T3 fibroblasts, dose response, counter-screen, cell-based, ATP luminescence, mouse fibroblasts (AID 2010); format: functional;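 note: cells exposed to compound for about 90 hours before reading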
[18] = target: Induced myeloid leukemia cell differentiation protein Mcl-1 (Homo sapiens, UniProt Q07820); format: functional
Sequence of Induced myeloid leukemia cell differentiation protein Mcl-1 (Q07820 whole entry): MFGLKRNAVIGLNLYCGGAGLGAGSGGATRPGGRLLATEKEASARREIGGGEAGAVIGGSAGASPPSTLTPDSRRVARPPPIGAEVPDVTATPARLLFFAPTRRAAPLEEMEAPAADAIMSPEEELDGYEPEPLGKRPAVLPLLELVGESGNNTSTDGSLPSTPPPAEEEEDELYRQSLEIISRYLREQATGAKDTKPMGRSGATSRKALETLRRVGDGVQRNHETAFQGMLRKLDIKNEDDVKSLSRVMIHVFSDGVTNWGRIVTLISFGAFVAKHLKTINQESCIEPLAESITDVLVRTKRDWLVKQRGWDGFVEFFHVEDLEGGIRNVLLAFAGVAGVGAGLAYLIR

[19] = target: Prothrombin (Homo sapiens, UniProt P00734); test: Thrombin 1536 HTS Dose Response Confirmation. [Related pubchem assays: 1046 (Thrombin 1536 HTS; hits were confirmed in this assay)]; format: functional

Sequence of Eukaryotic translation initiation factor 4E (P63073 whole entry): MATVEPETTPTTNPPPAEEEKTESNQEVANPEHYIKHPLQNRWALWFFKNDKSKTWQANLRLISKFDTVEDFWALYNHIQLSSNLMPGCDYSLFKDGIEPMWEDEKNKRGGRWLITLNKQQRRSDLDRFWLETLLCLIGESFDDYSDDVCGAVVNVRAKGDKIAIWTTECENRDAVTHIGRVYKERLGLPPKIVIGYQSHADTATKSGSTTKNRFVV

Question: Which IC50 [1] does the source give for CCOc1ccccc1NC(=O)C1CCN(S(=O)(=O)c2cccc3cccnc23)CC1 here?
Answer: > 64 µM (inactive)

Question: Which results are given for O=C1CC(=C(c2ccccc2)c2ccccc2)C(=O)N1CCCCN1CCN(c2cccc(Cl)c2)CC1?
Answer: IC50 [2]: > 100 µM (inactive); AC50 [3]: 0.624 µM (active); IC50 [4]: > 100 µM (not active)

Question: What does the source list for CC[n+]1c(C)sc2c(C)cc(C)cc21?
Answer: IC50 [2]: > 100 µM (inactive); IC50 [4]: > 100 µM (not active); IC50 [5]: > 50 µM (not active); IC50 [6]: 10.8 µM (active)

Question: Which results are given for Fc1cccc(COc2ccccc2CNc2ccccc2)c1?
Answer: IC50 [2]: > 100 µM (inactive); IC50 [4]: > 100 µM (not active)

Question: For Cc1[nH]c2c(Br)cccc2c1[C@H]1[C@@H](CC#N)C1(C)C, which IC50 [7] is on record?
Answer: 1.49 µM (active)

Question: Which EC50 [8] does the source give for COc1ccc(NC(=O)c2cc(-c3cc(C)ccc3O)[nH]n2)cc1Cl here?
Answer: > 20 µM (not active)

Question: What about the EC50 [9] of the same compound?
Answer: > 20 µM (not active)

Question: Which results are given for O=C1/C(=C/c2ccc(N3CCOCC3)o2)S/C(=N\c2ccccc2)N1CCc1c[nH]c2ccccc12?
Answer: IC50 [10]: > 80 µM (inactive); AC50 [11]: 17.2 µM (active); EC50 [12]: > 120 µM (not active); EC50 [13]: > 120 µM (not active); EC50 [14]: 13 µM (active)

Question: Which EC50 [15] does the source give for Cc1ccc(O)c(NC2=C(Cl)C(=O)N(Cc3ccccc3)C2=O)c1 here?
Answer: 4.37 µM (active)

Question: What about the IC50 [1] of the same compound?
Answer: 50 µM (inactive)

Question: What about the IC50 [16] of the same compound?
Answer: > 100 µM (active)

Question: What about the EC50 [17] of the same compound?
Answer: > 60 µM (inconclusive)

Question: And the IC50 [18]?
Answer: 3.01 µM (not active)

Question: With O=C(c1cccc([N+](=O)[O-])c1)n1nc(-c2ccccc2)nc1NCc1ccccc1 as the compound, how does the IC50 [19] read?
Answer: 0.521 µM (active)
